# Measured values as given in US4112228A, “7-(D-α-Hydroxy-2-arylacetamido)-3-(2-carboxyalkyl-2,3-dihydro-s-tri azolo-[4,3-b]pyridazin-3-on-6-ylthiomethyl)-3-cephem-4-carboxylic acids and derivatives” (priority 1977, dated 1978).
# Like-named read-outs stand apart in the source and are kept apart here.
# What was measured:
# E. coli = experiment: MIC by Steers' agar dilution method; assay type: cell-based; details: Escherichia coli, read-out: MIC
# Kl. pneumoniae = experiment: MIC by Steers' agar dilution method; assay type: cell-based; details: Klebsiella pneumoniae
# Shig. flexneri = experiment: MIC by Steers' agar dilution method; assay type: cell-based; details: Shigella flexneri, MHA
# Pr. morganii = experiment: MIC by Steers' agar dilution method; details: Morganella morganii
# P. vulgaris A9436 (Pv-1) = experiment: Standard experimental infection (single sc treatment); details: for No. of survivors/No. tested: Run C-808, single sc
smiles,measurement,setting,value
"O=C(O)Cn1nc2ccc(SCC3=C(C(=O)O)N4C(=O)C(NC(=O)[C@H](O)c5ccccc5)[C@H]4SC3)nn2c1=O (stereo partly drawn) [BB-S488, 7-(D-Mandelamido)-3-(2-carboxymethyl-2,3-dihydro-s-triazolo[4,3-b]pyridazin-3-on-6-ylthiomethyl)-3-cephem-4-carboxylic Acid]",MIC,"E. coli; Ec-49 A20107, MHA, Table 3",0.4 µg/mL
same,MIC,"E. coli; Ec-50 A20109, MHA, Table 3",0.2 µg/mL
same,MIC,"E. coli; Ec-51 A20343 (β-lactamase), HIA, Table 4",> 100 µg/mL
same,MIC,"E. coli; Ec-51 A20343 (β-lactamase), MHA, Table 4",> 100 µg/mL
same,MIC,"E. coli; Ec-51 A20343 (β-lactamase), NA, Table 4",50 µg/mL
same,MIC,"E. coli; Ec-51 A20343, MHA, Table 3",50 µg/mL
same,MIC,"E. coli; Ec-56 A20365, MHA, Table 3",25 µg/mL
same,MIC,"E. coli; Ec-58 A9675, MHA, Table 3",0.4 µg/mL
same,MIC,"E. coli; Ec-59 A20766, MHA, Table 3",0.2 µg/mL
same,MIC,"E. coli; Ec-62 A20895, MHA, Table 3",0.4 µg/mL
same,MIC,"E. coli; Juhl A15119, MHA, Table 1",0.2 µg/mL
same,MIC,"E. coli; Juhl, MHA, Example 10",0.2 µg/mL
same,MIC,"E. coli; NIHJ, MHA, Example 10",0.2 µg/mL
same,MIC,"E. coli; NIHJ, MHA, Table 1",0.025 µg/mL
same,MIC,"E. coli; strain not named (1st of 3), MHA, Example 10",0.1 µg/mL
same,MIC,"E. coli; strain not named (2nd of 3), MHA, Example 10",0.05 µg/mL
same,MIC,"E. coli; strain not named (3rd of 3), MHA, Example 10",3.1 µg/mL
same,MIC,"Kl. pneumoniae; A9678, MHA, Table 1",3.1 µg/mL
same,MIC,"Kl. pneumoniae; A9867, MHA, Table 1",0.2 µg/mL
same,MIC,"Kl. pneumoniae; A9977, MHA, Table 1",0.05 µg/mL
same,MIC,"Kl. pneumoniae; A15130, MHA, Table 1",0.2 µg/mL
same,MIC,"Kl. pneumoniae; Kp-1 D11, MHA, Table 3",0.1 µg/mL
same,MIC,"Kl. pneumoniae; Kp-2 A9678, MHA, Table 3",3.1 µg/mL
same,MIC,"Kl. pneumoniae; Kp-3 A9977, HIA, Table 4",0.2 µg/mL
same,MIC,"Kl. pneumoniae; Kp-3 A9977, MHA, Table 3",0.1 µg/mL
same,MIC,"Kl. pneumoniae; Kp-3 A9977, MHA, Table 4",0.2 µg/mL
same,MIC,"Kl. pneumoniae; Kp-3 A9977, NA, Table 4",0.4 µg/mL
same,MIC,"Kl. pneumoniae; Kp-4 A15130, HIA, Table 4",0.8 µg/mL
same,MIC,"Kl. pneumoniae; Kp-4 A15130, MHA, Table 3",0.2 µg/mL
same,MIC,"Kl. pneumoniae; Kp-4 A15130, MHA, Table 4",0.4 µg/mL
same,MIC,"Kl. pneumoniae; Kp-4 A15130, NA, Table 4",0.8 µg/mL
same,MIC,"Kl. pneumoniae; Kp-7 A9867, MHA, Table 3",0.4 µg/mL
same,MIC,"Kl. pneumoniae; Kp-8 A20680, MHA, Table 3",25 µg/mL
same,MIC,"Kl. pneumoniae; Kp-9 A20636, MHA, Table 3",12.5 µg/mL
same,MIC,"Kl. pneumoniae; Kp-10 A20328, MHA, Table 3",6.3 µg/mL
same,MIC,"Kl. pneumoniae; Kp-11 A20330, MHA, Table 3",1.6 µg/mL
same,MIC,"Kl. pneumoniae; Kp-12 A21228, MHA, Table 3",6.3 µg/mL
same,MIC,"Kl. pneumoniae; strain not named (1st of 4), MHA, Example 10",3.1 µg/mL
same,MIC,"Kl. pneumoniae; strain not named (2nd of 4), MHA, Example 10",0.1 µg/mL
same,MIC,"Kl. pneumoniae; strain not named (3rd of 4), MHA, Example 10",0.4 µg/mL
same,MIC,"Kl. pneumoniae; strain not named (4th of 4), MHA, Example 10",0.2 µg/mL
same,MIC,"Shig. flexneri; A9684, Table 1",12.5 µg/mL
same,MIC,Shig. flexneri; Example 10,25 µg/mL
same,MIC,"Shig. flexneri; Sr-1 A9684, Table 3",12.5 µg/mL
same,MIC,"Pr. morganii; A9553, MHA, Table 1",> 100 µg/mL
same,MIC,"Pr. morganii; A20031, MHA, Table 1",0.1 µg/mL
same,MIC,"Pr. morganii; Pg-1 A9553 (β-lactamase), HIA, Table 4",> 100 µg/mL
same,MIC,"Pr. morganii; Pg-1 A9553 (β-lactamase), MHA, Table 4",> 100 µg/mL
same,MIC,"Pr. morganii; Pg-1 A9553 (β-lactamase), NA, Table 4",> 100 µg/mL
same,MIC,"Pr. morganii; Pg-1 A9553, MHA, Table 3",> 100 µg/mL
same,MIC,"Pr. morganii; Pg-2 A20031, HIA, Table 4",0.2 µg/mL
same,MIC,"Pr. morganii; Pg-2 A20031, MHA, Table 3",0.2 µg/mL
same,MIC,"Pr. morganii; Pg-2 A20031, MHA, Table 4",0.1 µg/mL
same,MIC,"Pr. morganii; Pg-2 A20031, NA, Table 4",0.2 µg/mL
same,MIC,"Pr. morganii; Pg-3 A9636, MHA, Table 3",0.8 µg/mL
same,MIC,"Pr. morganii; Pg-5 A15166, MHA, Table 3",0.1 µg/mL
same,MIC,"Pr. morganii; Pg-6 A20455 (β-lactamase), HIA, Table 4",0.8 µg/mL
same,MIC,"Pr. morganii; Pg-6 A20455 (β-lactamase), MHA, Table 4",0.4 µg/mL
same,MIC,"Pr. morganii; Pg-6 A20455 (β-lactamase), NA, Table 4",0.4 µg/mL
same,MIC,"Pr. morganii; Pg-6 A20455, MHA, Table 3",0.4 µg/mL
same,MIC,"Pr. morganii; Pg-7 A20457, MHA, Table 3",0.2 µg/mL
same,MIC,"Pr. morganii; Pg-8 A15153, MHA, Table 3",0.1 µg/mL
same,MIC,"Pr. morganii; Pg-9 A15149, MHA, Table 3",0.8 µg/mL
same,MIC,"Pr. morganii; strain not given (1st of 2), MHA, Example 10",> 100 µg/mL
same,MIC,"Pr. morganii; strain not named (2nd of 2), MHA, Example 10",0.2 µg/mL
same,ED50,"P. vulgaris A9436 (Pv-1); Proteus vulgaris, in Mus musculus, sc, read-out: PD50",1.1 mg/kg
same,No. of survivors/No. tested,P. vulgaris A9436 (Pv-1); 0.4 mg./kg.,1/5
same,No. of survivors/No. tested,P. vulgaris A9436 (Pv-1); 1.6 mg./kg.,3/5
same,No. of survivors/No. tested,P. vulgaris A9436 (Pv-1); 6.3 mg./kg.,5/5
same,No. of survivors/No. tested,P. vulgaris A9436 (Pv-1); 25 mg./kg.,5/5
